Assay results: a melting point compilation (Tetko et al.; mined from patent text by program, amines drawn as free bases though some values may be those of a salt)

SMILES | melting point
CNc1c(C)cc(C(C)(C)c2ccc(C(C)(C)c3cc(C)c(NC)c(C)c3)cc2)cc1C | 110 to 115 °C
COC(=O)C1CC(C#N)(c2ccccc2Cl)CCC1=O (centres undefined) | 113 to 118 °C
OCCCCCCCCCCCCCCCCN(CCO)CCO | 67.6 to 68.8 °C
C[C@@H]1O[C@](C#CC2CC2)(C(F)(F)F)c2c(ccc3c2OCO3)NC1=O (relative stereo) | 252 to 253 °C
COc1ccc(N2CCN(Cc3n[nH]c4c(F)c(F)ccc34)CC2)cc1 | 195 to 197 °C
CN1CC(CCN2CCN(c3cccc(F)c3)CC2)OC1=O (centres undefined) | 92 to 93 °C
CC(C)(C)C(=O)Oc1ccc(-c2nnn(Cc3ccccc3)n2)cc1 | 131 to 134 °C
CCOC(=O)C(=NOC(C)(C)C(=O)OC(C)(C)C)c1csc(NC(c2ccccc2)(c2ccccc2)c2ccccc2)n1 | 124 to 125 °C
NS(=O)(=O)c1cc(C(=O)O)cc(SCc2ccsc2)c1Oc1ccccc1 | 222 to 224 °C
CCC(=O)C(=CS(=O)(=O)c1ccc(OS(=O)(=O)c2ccc(C)cc2)cc1)N(C)C | 148 to 150 °C
Cc1cn(-c2nc(C3=Nc4ccc(-c5ccccc5F)cc4NC(=O)C3)cs2)cn1 | 229 °C
Nc1ccc2c(c1)CCN(Cc1ncn[nH]1)C2 | 191 to 193 °C
COC(=O)C1=Cc2cccc(C3CCN(S(=O)(=O)c4ccc(C)cc4)CC3)c2CCC1 | 169 to 173 °C
CC(C)Cc1ccc(C(Nc2cccc(C(=O)n3cc(CCCC(=O)O)c4ccccc43)c2)c2ccc(CC(C)C)cc2)cc1 | 74.8 °C
CCOC(=O)C1=C(C)NC(C)=C2C(=O)Nc3ccccc3C21 (centres undefined) | 236 to 238 °C
O=[N+]([O-])OCC#CCO | 107 to 110 °C
CC(C)C[C@H](NC(=O)OC(C)(C)C)C(=O)C=[N+]=[N-] | 72 to 74 °C
CCN(CC)CCCNC(=O)/C(=C/C=C/c1cc2ccccc2o1)OC | 79 °C
CCOC(=O)CNC(=O)CN1CCCC1=O | 63 to 64 °C
CCOC(=O)CN1C(=O)N(c2ccc(C)cc2)C2(CCCCC2)C1=O | 132 °C
CC(C)(C)c1cccc(S(=O)(=O)n2c(C(O)c3ccc(C(=O)O)s3)cc3cc(C(F)(F)F)ccc32)c1 (centres undefined) | 90 °C

SMILES | melting point
O=C1CCCC2=C1C(c1cccc([N+](=O)[O-])c1)C1=C(CCCC1)N2 (centres undefined) | 218 to 221 °C
CC(C)n1c(=O)n(C)c(=O)c2cc(Cc3ccccc3)sc21 | 91 to 93 °C
COc1cc2[nH]c(SCc3nccc(OC)c3OC)nc2cc1OC(F)F | 137 to 138 °C
Cc1cc(C(F)(F)F)ccc1NC(=O)c1c(C)cccc1NC(=O)C(C)C | > 230 °C
CCCCSc1nc(=O)n(C(=O)NC)s1 | 102 °C
CO/C(=C\C=C\c1cc2cc(Br)ccc2[nH]1)C(=O)O | 208 to 210 °C
C#Cc1ccc(-c2c(C)n[nH]c(=O)c2-c2c(F)cc(F)cc2F)cc1 | 252 to 254 °C
CCn1nc(C)c2c1C(=O)Nc1ccccc1N2C(=O)CN1CCN(C)CC1 | 145 to 146 °C
Cc1c(OCC(F)(F)F)ccnc1CS(=O)c1nc2ccccc2n1S(=O)(=O)c1ccc(OCC(=O)Nc2ccccn2)cc1 (centres undefined) | 78 to 81 °C
NCc1nc(-c2ncn3c2[C@@H]2CCN2C(=O)c2cc(F)ccc2-3)no1 | 195 to 198 °C
CC1(C)CS(=O)(=O)c2ccccc2C1c1cncnc1S(C)(=O)=O (centres undefined) | 202 to 208 °C
Nc1ccc(Oc2cc3ccccc3cc2Oc2ccc(N)c(O)c2)cc1O | 196 to 197 °C
Cc1c(CO)cc(-c2ccc(S(C)(=O)=O)cc2)n1-c1ccc(F)cc1 | 140 to 142 °C
CCOCCOc1ccc(CCNC(=O)/C=C/c2cccs2)cc1S(=O)(=O)NC(=S)NC | 51 °C
CCCSc1cccc(-c2nc(=O)c3ccccc3s2)n1 | 124 to 125 °C
OCc1ccc2cccc3c2c1-c1ccccc1-3 | 147 to 185 °C
C#CCn1c(C)c(CO)sc1=O | 62 °C
O=C(Nc1nccs1)c1c(C(F)(F)F)nc(-c2ccccc2)c(-c2ccccc2)c1O | 256 °C
Cc1cccnc1C(CO)COc1ccc(CC2SC(=O)NC2=O)cc1 (centres undefined) | 182 to 183 °C
CCc1nccn1N=Cc1ccccc1 | 67 to 68 °C
CC1(C)OC(O)C(Oc2ccc(F)c(F)c2)=C1c1ccc(S(C)(=O)=O)cc1 (centres undefined) | 151 °C

SMILES | melting point
O=C1[C@H]2CCC[C@H]2N(C(=O)Cn2cnc3ccccc32)c2ccccc2N1Cc1ccccc1 (relative stereo) | 188 to 189 °C
CCOC(=O)c1sc(-c2ccc(C#N)cc2)nc1CBr | 156 °C
CC(C)(C)c1ccc(C(=O)Nc2cn3c4c(ccc3n2)OCC4)cc1 | 266 to 268 °C
CC12C=CC(=O)C=C1CCC1C2C(=O)CC2(C)C(SCc3ccc(Cl)cc3)CCC12 (centres undefined) | 176 to 180 °C
Cc1c(OCc2ccccc2)ccc2c(O)c(C(=O)Nc3cccc(Br)c3)c(=O)oc12 | 229 to 231 °C
COc1cn(-c2ccccc2F)nc(C(=O)N(C)OC)c1=O | 152 to 154 °C
O=C(O)[C@@H]1C[C@H]1/C=C\c1ccc(-c2nc3ccccc3o2)cc1 (relative stereo) | 171 to 172 °C
CCCCCCCCCCCCOc1ccc(C(=O)O)o1 | 122 to 123 °C
CCc1coc2cc(OCc3ccccc3)ccc12 | 69.5 to 70.5 °C
Cc1ccc(-c2ccnc3c(C(=O)c4cccs4)cnn23)cc1NC(=O)NC(C)C | 225 to 227 °C
Nc1ccccc1Nc1ccc(I)cc1 | 122 to 123 °C
Cc1cc(-n2nnc(-c3ccccc3)n2)sc1C(=O)NCc1ccccc1 | 155 to 158 °C
CSP(=S)(C1CCCCC1)C1CCCCC1 | 75 to 75.5 °C
Cc1cn2c(=O)c(C(=O)O)cnc2c2cc([N+](=O)[O-])ccc12 | 301 to 303 °C
O=C1c2ccccc2C(O)N1CCCl (centres undefined) | 133 to 134 °C
O=C(Nc1n[nH]c(=S)s1)NC(Cc1ccccc1)C(=O)NCc1ccc2c(c1)OCO2 (centres undefined) | 213 °C
CCCCOc1c(CNC(=O)OC(C)(C)C)n(CC(C)C)c(=O)c2ccc(CO)cc12 | 153 to 154 °C
CCN(CC)c1nc2ccccc2n2c(C(F)(F)F)nnc12 | 155 to 157 °C
N#Cc1ccc(C2C(=O)N(Cc3ccccc3)Cc3cncn32)cc1 (centres undefined) | 163 to 165 °C
O=C(c1ccccc1)n1cc(F)c(=O)n(C(=O)c2ccccc2)c1=O | 195 °C

Other lines, results leading:

melting point | SMILES
207 to 210 °C | CC(C)COc1ccc(C(=O)N/C(=C\c2ccc(C(F)(F)F)cc2)C(=O)NCCO)cc1
173 to 174 °C | CC1OC(n2cnc(C(N)=O)c2CC#N)C(O)C1O (centres undefined)
122 to 123 °C | CNC(=NCCSCc1ncccc1OC)NC#N
284 to 286 °C | O=C(O)CCc1cc(F)c2ncc(C(=O)NCc3ccc(Cl)cc3)c(O)c2c1
131 °C | Cc1cccc(C)c1OCC(=O)NC(Cc1ccccc1)C(O)CC(N)Cc1ccccc1 (centres undefined)
134 to 136 °C | CSc1nc(NC2CCCCC2)c2nsnc2n1
69 to 70 °C | O=C(OCc1ccccc1)N1C=CC(c2cccc(Cl)c2Cl)C=C1
134 to 135 °C | CC(=O)Nc1ccc(C(=O)OC2C=C(C)C(=O)CC(C)(C)C2O)cc1 (centres undefined)
188 to 189 °C | COc1ccc(SSc2ccc(OC)cc2C(N)=O)c(C(N)=O)c1
123 to 125 °C | CCCc1c(OCCCOc2ccc3c(c2)CCC(CC(=O)O)C3=O)ccc(C(C)=O)c1O (centres undefined)
59 to 60 °C | CCCCC(CC)COC(=O)COc1cc(F)ccc1C(=O)NCc1cccc([N+](=O)[O-])c1 (centres undefined)
152 to 154 °C | Cn1cc(-c2cccc(C(F)(F)F)c2)c(=O)c(-c2cccc(C(F)(F)F)c2)c1
165 to 168 °C | CCn1c(CC(=O)NOCc2ccccc2)nc2cc(F)c(N3CCN(C)CC3)cc21
64 to 66 °C | CCOC(=O)C1=Cc2cccc(N3CCCC3=O)c2OCC1
137 to 138 °C | CN1CCN(C(=O)OC(C)(C)C)CC1C(N)=O (centres undefined)
253 to 255 °C | C=CCn1c(=O)c2[nH]c(/C=C/c3cc(OC)c(OC)c(OC)c3)nc2n(CC=C)c1=O
288 to 290 °C | CCOC(=O)C1(C)C(=O)Nc2cc3[nH]c(-c4cnccn4)nc3cc21 (centres undefined)
103 °C | Cc1nc(CS(C)(=O)=O)nc(OC(=O)NN2CC(C)OC(C)C2)c1C (centres undefined)
135 to 137 °C | Cc1cccc(C)c1N1C(=O)CN(C(C)C)C1=S

melting point | SMILES
109 °C | COC(=O)CCCc1cc2nc(Cl)ccc2n1S(=O)(=O)c1ccc(OC(F)(F)F)cc1
119 to 122 °C | N=C(N)NCCOc1ccc2c(c1)CC(CCC(=O)O)C(=O)N2 (centres undefined)
123 to 124 °C | CC(C)Oc1ccc2c(c1)Cc1ccccc1C2=O
> 300 °C | CS(=O)(=O)NCc1cc(Br)cc2[nH]c(=O)c(=O)[nH]c12
147 to 152 °C | CC(C)(C)C(=O)Nc1nc(CC(=O)Nc2cccc(C(F)(F)F)c2)cs1
300 °C | c1ccc(-c2ncc(-c3cnc(-c4ccncc4)[nH]3)cn2)cc1
113 to 114 °C | COc1ccc(CC(=O)N2CCCCC2CC(c2ccccc2)c2ccccc2)cc1OC (centres undefined)
138 to 140 °C | CS(=O)(=O)N(Cc1cccnc1)c1ccc(Cl)cc1
262 °C | c1ccc(-c2ncc(-c3cnc(-c4ccccn4)[nH]3)cn2)cc1
93 to 95 °C | CON(C)C(=O)c1cc(C(F)(F)F)nc2c(C(F)(F)F)cccc12
151 to 153 °C | CCOC(=O)c1c[nH]c2cccc(O)c12
166 °C | CC(C)(C)OC(=O)Nc1cc(CC#N)c(C#Cc2ccccc2)cc1[N+](=O)[O-]
67 to 68 °C | CCCCN(Cc1ccc(Cl)cc1)c1cncnc1
113 to 115 °C | COc1cc(OC)nc(Oc2cccc(OC(F)F)c2C(=O)O)n1
201 to 202 °C | CC(=O)Nc1c(C(=O)c2cccc(F)c2)[nH]c2cc(Cl)ccc12
205 to 206 °C | C=COC(=O)NC1Cc2ccc(-c3ccc(=O)[nH]n3)cc2C1 (centres undefined)
132 to 134 °C | COc1ccc(C(NCCC(c2ccccc2)c2ccccc2)c2cccc(Nc3c(N)c(=O)c3=O)c2)cc1 (centres undefined)
154 to 167 °C | CC(=O)NCC1(c2ccccc2)CCN(CCC(c2ccccc2)(c2ccccc2)c2ccccc2)CC1
